What was measured:
[1] = test system: MCP1/CCL2; test: MCP1/CCL2 secretion by ELISA in primary human hepatocytes with FFA + TNFα; format: cell-based
[2] = test system: MCP-1; test: MCP-1 chemokine secretion in primary human hepatic stellate cells stimulated with TNFα; format: cell-based; settings: hepatic stellate cells, two donors
[3] = test system: IL-6; test: IL-6 cytokine secretion in primary human hepatic stellate cells stimulated with TNFα; format: cell-based; settings: hepatic stellate cells, two donors
[4] = test system: Col1a1; test: Col1a1 gene expression (RT-qPCR) in primary human hepatic stellate cells stimulated with TGFβ1; format: cell-based
[5] = test system: Procollagen Iα1; test: Procollagen Iα1 secretion (ELISA) in primary human hepatic stellate cells stimulated with TGFβ1; format: cell-based; settings: for Procollagen lα1 Secretion (Fold Change of 1X), Mean: first donor, TGFβ1 3 ng/mL 24 h
[6] = test system: IL-6; test: LPS-induced IL-6 secretion in primary human monocyte-derived macrophages; settings: for IL-6 Measurements, Mean: 0.15 ng/mL LPS, baseline subtracted values
[7] = test system: TNF-α; test: LPS-induced TNF-α secretion in primary human monocyte-derived macrophages; settings: for TNF-α Measurements Mean (baseline subtracted): 0.15 ng/mL LPS
[8] = hepatic stellate cells, three donors

Compound: CC(=O)N[C@@H](CS)C(=O)O [N-Acetyl Cysteine, N-acetylcysteine]
- MCP1 expression relative to Control, Mean ([1]; Donor 1, Conc. 1000 μM): −0.7629
- MCP1 expression relative to Control, Mean ([1]; Donor 1, Conc. 2500 μM): −2.498
- MCP1 expression relative to Control, Mean ([1]; Donor 1, Conc. 5000 μM): −10.8919
- MCP1 expression relative to Control, Mean ([1]; Donor 1, Conc. 10000 μM): −17.6065
- MCP1 expression relative to Control, Mean ([1]; Donor 2, Conc. 1000 μM): 1.602
- MCP1 expression relative to Control, Mean ([1]; Donor 2, Conc. 2500 μM): −4.0591
- MCP1 expression relative to Control, Mean ([1]; Donor 2, Conc. 5000 μM): −10.5725
- MCP1 expression relative to Control, Mean ([1]; Donor 2, Conc. 10000 μM): −28.4419
- MCP1/CCL2 secretion (summary in words) ([1]; primary human hepatocytes, two healthy donors): significantly decrease MCP1/CCL2 secretion
- MCP-1 secretion (summary in words) [2]: significantly reduced MCP-1 secretion in both donors
- IL-6 secretion (summary in words) [3]: reduced IL-6 secretion in both donors but was only statistically significant in one of two donors
- Col1a1 Fold Expression Relative to Control, Mean ([4]; first donor, 1000 μM, single amino acid): 1.00 fold
- Col1a1 Fold Expression Relative to Control, Mean ([4]; first donor, 10000 μM, single amino acid): 0.76 fold
- Col1a1 Fold Expression Relative to Control, Mean ([4]; first donor, 5X, normalized to Gapdh, TGFβ1 3 ng/mL 24 h): 1.00 fold
- Col1a1 Fold Expression Relative to Control, Mean ([4]; first donor, 10X, normalized to Gapdh, TGFβ1 3 ng/mL 24 h): 1.07 fold
- Col1a1 Fold Expression Relative to Control, Mean ([4]; first donor, 20X, normalized to Gapdh, TGFβ1 3 ng/mL 24 h): 1.02 fold
- Col1a1 Fold Expression Relative to Control, Mean ([4]; first donor, 40X, normalized to Gapdh, TGFβ1 3 ng/mL 24 h): 0.76 fold
- Col1a1 gene expression (summary in words) [4, 8]: significantly reduced Col1a1 gene expression in all three donors
- Col1a1 Fold Expression Relative to Control, Mean ([4]; second donor (Table 27), 1000 μM, single amino acid): 0.69 fold
- Col1a1 Fold Expression Relative to Control, Mean ([4]; second donor (Table 27), 2500 μM, single amino acid): 0.69 fold
- Col1a1 Fold Expression Relative to Control, Mean ([4]; second donor (Table 27), 5000 μM, single amino acid): 0.69 fold
- Col1a1 Fold Expression Relative to Control, Mean ([4]; second donor (Table 27), 10000 μM, single amino acid): 0.57 fold
- Col1a1 Fold Expression Relative to Control, Mean ([4]; second donor (Table 29), 1000 μM, single amino acid): 0.91 fold
- Col1a1 Fold Expression Relative to Control, Mean ([4]; second donor (Table 29), 2500 μM, single amino acid): 0.82 fold
- Col1a1 Fold Expression Relative to Control, Mean ([4]; second donor (Table 29), 5000 μM, single amino acid): 0.73 fold
- Col1a1 Fold Expression Relative to Control, Mean ([4]; second donor (Table 29), 10000 μM, single amino acid): 0.62 fold
- Col1a1 Fold Expression Relative to Control, Mean ([4]; second donor, 5X, normalized to Gapdh, TGFβ1 3 ng/mL 24 h): 0.69 fold
- Col1a1 Fold Expression Relative to Control, Mean ([4]; second donor, 10X, normalized to Gapdh, TGFβ1 3 ng/mL 24 h): 0.69 fold
- Col1a1 Fold Expression Relative to Control, Mean ([4]; second donor, 20X, normalized to Gapdh, TGFβ1 3 ng/mL 24 h): 0.69 fold
- Col1a1 Fold Expression Relative to Control, Mean ([4]; second donor, 40X, normalized to Gapdh, TGFβ1 3 ng/mL 24 h): 0.57 fold
- Col1a1 Fold Expression Relative to Control, Mean ([4]; third donor, 5X, normalized to Gapdh, TGFβ1 3 ng/mL 24 h): 0.91 fold
- Col1a1 Fold Expression Relative to Control, Mean ([4]; third donor, 10X, normalized to Gapdh, TGFβ1 3 ng/mL 24 h): 0.82 fold
- Col1a1 Fold Expression Relative to Control, Mean ([4]; third donor, 20X, normalized to Gapdh, TGFβ1 3 ng/mL 24 h): 0.73 fold
- Col1a1 Fold Expression Relative to Control, Mean ([4]; third donor, 40X, normalized to Gapdh, TGFβ1 3 ng/mL 24 h): 0.62 fold
- Procollagen lα1 Secretion (Fold Change of 1X), Mean ([5]; 5X): 0.9175 fold
- Procollagen lα1 Secretion (Fold Change of 1X), Mean ([5]; 10X): 0.7939 fold
- Procollagen lα1 Secretion (Fold Change of 1X), Mean ([5]; 20X): 0.6593 fold
- Procollagen lα1 Secretion (Fold Change of 1X), Mean ([5]; 40X): 0.5076 fold
- procollagen Iα1 secretion (summary in words) [5, 8]: significantly decrease procollagen Iα1 secretion in two of the three donors
- Procollagen Iα1 Secretion, Mean ([5]; second donor, Conc. 5 X): 0.8387 Fold Change of 1X
- Procollagen Iα1 Secretion, Mean ([5]; second donor, Conc. 10 X): 0.8877 Fold Change of 1X
- Procollagen Iα1 Secretion, Mean ([5]; second donor, Conc. 20 X): 0.7378 Fold Change of 1X
- Procollagen Iα1 Secretion, Mean ([5]; second donor, Conc. 40 X): 0.8383 Fold Change of 1X
- Procollagen Iα1 Secretion, Mean ([5]; third donor, Conc. 5 X): 1.0897 Fold Change of 1×
- Procollagen Iα1 Secretion, Mean ([5]; third donor, Conc. 10 X): 0.9391 Fold Change of 1×
- Procollagen Iα1 Secretion, Mean ([5]; third donor, Conc. 20 X): 0.8521 Fold Change of 1×
- Procollagen Iα1 Secretion, Mean ([5]; third donor, Conc. 40 X): 0.6962 Fold Change of 1×
- LPS-induced IL-6 secretion (summary in words) ([6]; Donor 1): significantly reduced LPS-induced IL-6 secretion
- LPS-induced IL-6 secretion (summary in words) ([6]; Donor 2): significantly reduced LPS-induced IL-6 secretion
- IL-6 Measurements, Mean ([6]; Donor 2, Conc. 5 X): −0.7946
- IL-6 Measurements, Mean ([6]; Donor 2, Conc. 10 X): −9.751
- IL-6 Measurements, Mean ([6]; Donor 2, Conc. 40 X): −33.7585
- LPS-induced IL-6 secretion (summary in words) ([6]; Donor 3): significantly reduced LPS-induced IL-6 secretion
- LPS-induced TNF-α secretion (summary in words) ([7]; Donor 1): significantly reduced LPS-induced TNF-α secretion
- TNF-α Measurements Mean (baseline subtracted) ([7]; Donor 1, Conc. 0 X (baseline)): 0
- TNF-α Measurements Mean (baseline subtracted) ([7]; Donor 1, Conc. 5 X): −326.24
- TNF-α Measurements Mean (baseline subtracted) ([7]; Donor 1, Conc. 10 X): −446.88
- TNF-α Measurements Mean (baseline subtracted) ([7]; Donor 1, Conc. 20 X): −561.33
- TNF-α Measurements Mean (baseline subtracted) ([7]; Donor 1, Conc. 40 X): −644.49
- LPS-induced TNF-α secretion (summary in words) ([7]; Donor 2): significantly reduced LPS-induced TNF-α secretion
- TNF-α Measurements Mean (baseline subtracted) ([7]; Donor 2, Conc. 0 X (baseline)): 9.47E−15
- TNF-α Measurements Mean (baseline subtracted) ([7]; Donor 2, Conc. 5 X): −54.1596
- TNF-α Measurements Mean (baseline subtracted) ([7]; Donor 2, Conc. 10 X): −70.8382
- TNF-α Measurements Mean (baseline subtracted) ([7]; Donor 2, Conc. 20 X): −88.6528
- TNF-α Measurements Mean (baseline subtracted) ([7]; Donor 2, Conc. 40 X): −103.984
- LPS-induced TNF-α secretion (summary in words) ([7]; Donor 3): significantly reduced LPS-induced TNF-α secretion
- TNF-α Measurements Mean (baseline subtracted) ([7]; Donor 3, Conc. 0 X (baseline)): 4.74E−15
- TNF-α Measurements Mean (baseline subtracted) ([7]; Donor 3, Conc. 5 X): −33.6246
- TNF-α Measurements Mean (baseline subtracted) ([7]; Donor 3, Conc. 10 X): −41.7266
- TNF-α Measurements Mean (baseline subtracted) ([7]; Donor 3, Conc. 20 X): −48.4373
- TNF-α Measurements Mean (baseline subtracted) ([7]; Donor 3, Conc. 40 X): −55.3093

From patent US11737999B2, “Amino acid compositions and methods for the treatment of post-acute sequelae of COVID-19” (AXCELLA HEALTH INC., priority 2021, dated 2023)
